Read-outs that look alike come from different tables or passages of the source.
How the values were obtained:
[1] = system: hypersensitive bleached front teeth
Protocol: A volunteer had performed a self-bleaching procedure on their teeth, using a home kit. They complained and described their front teeth as extremely sensitive for changes of temperature in drinks or food. The teeth were rinsed carefully with water at room temperature, and isolated with cotton rolls. The teeth were kept dry and then treated with a generous amount of a saturated aqueous solution of Ca(OH)2, at an acceptable temperature, for a period of about 5 minutes. After a few additional minutes the cotton rolls were removed, and treatment with an aqueous solution of 2.0% by weight of NaF was performed, to induce formation CaF2, to stabilize the calcium added.

[2] = saturated, or less than saturated, aqueous solutions
[3] = SEM micrographs of bleached human tooth enamel surface; settings: human tooth enamel after bleaching with peroxide
Description: FIG. 2: A SEM micrograph showing the same tooth surface (from FIG. 1) covered with a film of dehydrated Ca(OH)2.
FIG. 3: A SEM micrograph showing the same tooth surface (from FIG. 2) subsequently treated with 2% by weight NaF-solution.

Question: Which “tooth colour after treatment” value ([1]; after saturated Ca(OH)2 then 2.0% NaF treatment) does the source give for [Ca+2].[OH-].[OH-] [Ca(OH)2, calcium hydroxide] here?
Answer: Its value is “maintained an acceptable colour”.

Question: And the “reappearance of sensitivity after treatment” value ([1]; follow-up after saturated Ca(OH)2 then 2.0% NaF treatment)?
Answer: Its value is “sensitivity has not reappeared”.

Question: What about the “hypersensitivity of bleached teeth after treatment” value ([1]; volunteer, saturated aqueous Ca(OH)2 about 5 minutes, followed by aqueous 2.0% by weight NaF) of the same compound?
Answer: Its value is “hypersensitivity was eliminated”.

Question: And the pH [2]?
Answer: The pH was > 10.

Question: And the pH ([2]; listed as calcium hydroxide)?
Answer: The pH was 14.

Question: For OO [peroxide, hydrogen peroxide], which “enamel surface appearance after bleaching (SEM, FIG. 1)” value [3] is on record?
Answer: The value was “pitted and damaged by demineralization”.
